Laboratory results taken from patent publication US20190320654A1, “VOLATILE ORGANIC COMPOUNDS FOR INHIBITING FUNGAL GROWTH” (Georgia State University Research Foundation, Inc., priority 2014, published 2019).

Legend:
P. destructans conidia = assay: VOC exposure assay with P. destructans conidia in a contained airspace; as to anti-P. destructans activity, growth from conidia: key: +: growth from spores; −: no visible growth; assay type: cell-based, Pseudogymnoascus destructans; settings: for inhibitory activity on conidia: 11 days of exposure; for anti-P. destructans activity against conidia / inhibition of conidia with activated carbon: 30 μl; for anti-P. destructans activity against conidia: closed system; for inhibition of conidia with activated carbon: control plates containing 1 g activated carbon
Excerpt: (§1) Volatile organic compounds previously shown to be produced by bacteria [Chuankun X, et al. Soil Biol Biochem. 2004 36:1997-2004; Fernando W G D, et al. Soil Biol Biochem. 2005 37:955-64] were screened for anti-P. destructans activity via VOC exposure to spores and mycelial plugs. The VOCs included: decanal; 2-ethyl-1-hexanol; nonanal; benzothiazole; benzaldehyde; and N,N-dimethyloctylamine (Sigma-Aldrich, Missouri). All VOCs were chosen based on their identification in fungistatic soils and their observed production in bacteria [Chuankun X, et al. Soil Biol Biochem. 2004 36:1997-2004; Fernando W G D, et al. Soil Biol Biochem. 2005 37:955-64]. All VOCs purchased as pure, liquid, research grade reagents and used directly, without modification, in all subsequent assays. A single-compartment Petri plate (150 mm×15 mm) was used for a contained airspace to assess P. destructans growth characteristics in the presence of fungistatic VOCs. Ten microliters of P. destructans conidia suspension (10^6 conidia ml^−1 in PBS) was spread onto SDA plates (35 mm×10 mm). Aliquots of 30, 3.0, or 0.3 μl of each VOC corresponding to maximum possible relative concentrations ranging from 113 ppm (v/v) to 1.13 ppm (v/v) were pipetted onto a sterile filter paper disk (12.7 mm) on a watch glass (75 mm). Each VOC containing disk and watch glass was placed inside a large Petri plate (150 mm 9 15 mm) along with a P. destructans-inoculated SDA plate (35 mm×10 mm) (FIG. 6). P. destructans mycelial plugs cut from the leading edge of actively growing colonies were inserted into fresh SDA plates (35 mm×10 mm) and placed in large Petri plates (150 mm×15 mm) with each formulation or pure VOC containing paper disk and sealed with parafilm M (Sigma-Aldrich, Missouri). […] Unexposed cultures and the addition of activated carbon to exposure assays served as negative controls for each trial. Anti-P. destructans activity was scored on a plus/minus scale for conidia-inoculated plates, and the radial growth from mycelial plugs was used to determine percent inhibition by comparing growth area of VOC exposed plugs to unexposed controls. All assays were performed in triplicate and averaged.

[1] = tested on: P. destructans mycelial plugs; assay: VOC exposure assay with P. destructans mycelial plugs, radial growth area; assay type: cell-based, Pseudogymnoascus destructans; settings: for inhibition of radial mycelial growth: 3 μl, up to 14 days
Excerpt: as §1
Filamentous fungi grow by hyphae elongation and not by distinct cellular division. Accordingly, measuring the difference between the area growth of control agent-exposed mycelial plugs and control plugs has been a vetted method for assessing antimicrobial susceptibility [Fernando W G D, et al. Soil Biol Biochem. 2005 37:955-64; Liu W, et al. Curr Res Bacteriol. 2008 1:128-34; Strobel G A, et al. Microbiology. 2007 153:2613-20]. The use of a ruler to measure the area of mycelial growth of filamentous fungi has its own challenges. Mycelial plugs will often grow asymmetrically, either naturally or because of exposure to the compound being tested. To provide more accurate measurement of mycelial growth, a digital photography and analysis technique was developed.
The GIMP (GNU Image Manipulation Program) is open-source, freely distributed software for image editing and authoring, compatible with GNU/Linux, Microsoft Windows, Mac OS X, Sun OpenSolaris, and FreeBSD operating systems. This software allows for the direct measurement of the number of pixels in a given selected area of a photograph. GIMP version 2.8.2 for Microsoft Windows was used at the time of this writing. A Nikon D3100 digital single lens reflex camera with an 18-55 mm lens was used to capture images. A standard three-leg tripod was used for support during capture.
The camera was attached to the tripod and aimed down to a surface to provide a consistent distance from the lens to the mycelial surface being photographed; ensuring the same pixel to millimeter ratio was retained for all acquired images. Images of mycelial plugs had their corresponding image numbers catalogued for later identification. […]

[2] = 3 μl VOC, 7 day exposure, incubated with activated carbon
[3] = 3 μl VOC, 10 day exposure, incubated with activated carbon
[4] = 30 μl VOC, incubated with activated carbon, 15° C.

| Compound | anti-P. destructans activity, growth from conidia (P. destructans conidia; 3 μl VOC, 7 day exposure) | anti-P. destructans activity, growth from conidia (P. destructans conidia; [2]) | anti-P. destructans activity, growth from conidia (P. destructans conidia; 3 μl VOC, 10 day exposure) | anti-P. destructans activity, growth from conidia (P. destructans conidia; [3]) | inhibitory activity on conidia (P. destructans conidia; 3 μl) | anti-P. destructans activity, growth from conidia (P. destructans conidia; 30 μl VOC, 15° C.) | anti-P. destructans activity, growth from conidia (P. destructans conidia; [4]) | anti-P. destructans activity against conidia (P. destructans conidia; 15° C.) | inhibition of conidia with activated carbon (P. destructans conidia) | reduction in radial growth ([1]; 0.3 μl, 15° C., 14 days of exposure) [%] | colony morphology of cultures from conidia (P. destructans conidia; 3 μl, without activated carbon) | reduction in growth area ([1]; 0.3 μl, 4° C., 35 days post-inoculation) | inhibition of radial mycelial growth ([1]; 15° C.) | reduction in growth as compared to unexposed controls ([1]; 30 μl, 15° C., 14 days of exposure) [%] | effect on radial growth as compared to unexposed controls ([1]; 0.3 μl, 15° C.) | inhibition of growth from conidia (P. destructans conidia; 3 μl, 7 days) |
| --- | --- | --- | --- | --- | --- | --- | --- | --- | --- | --- | --- | --- | --- | --- | --- | --- |
| CCCCC(CC)CO (stereo not drawn) [2-ethyl-1-hexanol] | − | + | − | + | demonstrated inhibitory activity | − | + | demonstrated anti-P. destructans activity | no inhibition |  |  |  |  |  |  |  |
| O=Cc1ccccc1 [Benzaldehyde, benzaldehyde] | − | + | + | + |  | − | + | demonstrated anti-P. destructans activity | no inhibition |  |  |  |  |  |  |  |
| c1ccc2scnc2c1 [Benzothiazole, benzothiazole] | − | + | + | + |  | − | − | demonstrated anti-P. destructans activity |  | 60 | unique colony morphology characterized by increased pigmentation of the underside of the culture and diffusion of pigment into the growth media |  |  |  |  |  |
| CCCCCCCCCC=O [Decanal, decanal] | − | + | − | + | demonstrated inhibitory activity | − | + | demonstrated anti-P. destructans activity | no inhibition |  |  | greater than 99% | only minor reductions in radial growth | 83 |  |  |
| CCCCCCCCN(C)C [N,N-dimethyloctylamine] | + | + | + | + |  | − | − | demonstrated anti-P. destructans activity |  |  |  |  | only minor reductions in radial growth |  | induced growth | unable to completely inhibit |
| CCCCCCCCC=O [Nonanal, nonanal] | − | + | − | + | demonstrated inhibitory activity | − | − | demonstrated anti-P. destructans activity |  |  |  |  |  |  |  |  |
| CSSSC [dimethyltrisulfide] |  |  |  |  |  |  |  | demonstrated anti-P. destructans activity |  |  |  |  |  |  |  |  |
